Experimental findings from ChEMBL document CHEMBL1135579, “Serine-threonine protein phosphatase inhibitors: development of potential therapeutic strategies” (J Med Chem, 2002) are described below.

Test [1] is described as follows: Inhibition of growth after 72 hr continuous exposure to test compounds in colon HT-29 tumor cell lines. Type of test: functional. The settings on record: Homo sapiens, HT-29, 72 h.
The nature of test [2]: Inhibition of growth after 72 hr continuous exposure to test compounds in Osteosarcoma 143B tumor cell lines. Type of test: functional. The settings on record: Homo sapiens.
A short description of test [3]: Inhibition of growth after 72 hr continuous exposure to test compounds in Ovarian ADDP tumor cell lines. Type of test: functional.
Test [4] can be described thus: Inhibition of growth after 72 hr continuous exposure to test compounds in Colon HCT 116 tumor cell lines. The settings on record: Homo sapiens, HCT-116, 72 h. Type of test: functional.
For test [5], the target named is T1, Serine-threonine protein phosphatase 2A regulatory subunit (Gallus gallus, UniProt Q8AWE3).
T1 sequence (Q8AWE3 whole entry): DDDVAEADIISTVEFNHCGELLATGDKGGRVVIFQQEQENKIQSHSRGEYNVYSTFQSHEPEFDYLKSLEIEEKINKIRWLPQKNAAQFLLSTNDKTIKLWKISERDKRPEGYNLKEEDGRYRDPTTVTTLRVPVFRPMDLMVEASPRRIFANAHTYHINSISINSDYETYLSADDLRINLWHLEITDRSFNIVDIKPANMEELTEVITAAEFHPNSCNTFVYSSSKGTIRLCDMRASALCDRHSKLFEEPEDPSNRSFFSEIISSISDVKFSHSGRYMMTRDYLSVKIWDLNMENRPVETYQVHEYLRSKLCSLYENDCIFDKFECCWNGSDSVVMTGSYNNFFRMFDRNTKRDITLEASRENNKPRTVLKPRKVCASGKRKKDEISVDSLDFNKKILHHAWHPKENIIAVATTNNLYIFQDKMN
Kind of test: Inhibition of Serine/threonine protein phosphatase 2A by anhydride modified Cantharidin analogues.

Test [6] has as its target T2, Serine/threonine-protein phosphatase PP1-gamma catalytic subunit (Homo sapiens, UniProt P36873). As to the kind of experiment: Inhibition of Serine/threonine protein phosphatase 1 by anhydride modified Cantharidin analogues.
Target sequence in this assay (P36873 whole entry): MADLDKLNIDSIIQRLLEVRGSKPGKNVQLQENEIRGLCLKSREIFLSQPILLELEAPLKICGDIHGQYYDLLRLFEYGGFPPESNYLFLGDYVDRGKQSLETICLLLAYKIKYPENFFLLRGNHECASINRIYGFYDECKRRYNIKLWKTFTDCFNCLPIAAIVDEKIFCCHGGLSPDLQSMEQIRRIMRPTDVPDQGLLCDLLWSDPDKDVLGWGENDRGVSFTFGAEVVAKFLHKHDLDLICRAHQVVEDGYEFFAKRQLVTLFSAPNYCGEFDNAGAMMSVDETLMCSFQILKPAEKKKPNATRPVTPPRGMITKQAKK
Test [7] in a line: Inhibition of growth after 72 hr continuous exposure to test compounds in Ovarian A2780 tumor cell lines. Particulars: A2780, 72 h. Type of test: functional.
Test [8] addresses T3, Serine-threonine protein phosphatase 2A regulatory subunit (Gallus gallus) (UniProt Q8AWE3).
T3 sequence (whole entry): T1 sequence (Q8AWE3 whole entry)
Kind of test: Tested for selective inhibition of Serine/threonine protein phosphatase 2A (PP2A) with respect to inhibition of Serine/threonine protein phosphatase 1 (PP1).

The nature of test [9]: Exogenous inhibition concentration of Serine/threonine protein phosphatase 2A (PP2A).
Test [10] in a line: Exogenous inhibition of Serine/threonine protein phosphatase 1 (PP1). Also on record: species or system Homo sapiens.
Test [11] is described as follows: Exogenous inhibition concentration of Serine/threonine protein phosphatase 2C ([…]).
Test [12] in a line: Exogenous inhibition concentration of Serine/threonine protein phosphatase 2C (PP2C); NI means no inhibition.
A short description of test [13]: Selectivity for interaction at Serine/threonine protein phosphatase 2B (PP2B). The settings on record: read-out: Ki app.
A short description of test [14]: Exogenous inhibition concentration of Serine/threonine protein phosphatase 2B (PP2B).
Test [15] deals with T4, Serine/threonine-protein phosphatase PP1-gamma catalytic subunit (Homo sapiens, UniProt P36873, R221S). Kind of test: Inhibition of Serine/threonine protein phosphatase 1 (PP1) mutants by natural toxins in R221S.
T4 sequence (P36873 2-323 R221S limits assumed): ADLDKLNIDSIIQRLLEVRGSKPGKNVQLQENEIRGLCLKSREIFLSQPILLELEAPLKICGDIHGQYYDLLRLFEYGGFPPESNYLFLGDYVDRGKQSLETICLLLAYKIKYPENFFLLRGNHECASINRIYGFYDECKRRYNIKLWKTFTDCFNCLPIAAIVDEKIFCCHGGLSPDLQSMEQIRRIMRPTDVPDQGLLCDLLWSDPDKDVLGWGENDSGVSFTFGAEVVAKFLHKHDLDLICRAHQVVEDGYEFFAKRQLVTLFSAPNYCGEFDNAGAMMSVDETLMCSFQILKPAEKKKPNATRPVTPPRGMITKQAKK
Test [16] concerns the target T5, Serine/threonine-protein phosphatase PP1-gamma catalytic subunit (Homo sapiens, UniProt P36873, R96A). Kind of test: Inhibition of Serine/threonine protein phosphatase 1 (PP1) mutants by natural toxins in R96A.
A short description of test [17]: Exogenous inhibition concentration of Serine/threonine protein phosphatase 4 (PP4).
For test [18], the target named is T6, Serine/threonine-protein phosphatase PP1-gamma catalytic subunit (Homo sapiens, UniProt P36873, D220V). Kind of test: Inhibition of Serine/threonine protein phosphatase 1 (PP1) mutants by natural toxins in D220V.
T6 sequence (P36873 2-323 D220V limits assumed): as the sequence (P36873 2-323 R221S limits assumed) above, with D219V, S220R counted along it
Test [19] addresses T7, Serine/threonine-protein phosphatase PP1-gamma catalytic subunit (Homo sapiens, UniProt P36873, Y272F). As to the kind of experiment: Inhibition of Serine/threonine protein phosphatase 1 (PP1) mutants by natural toxins in Y272F.
The target of test [20] is T8, Serine/threonine-protein phosphatase PP1-gamma catalytic subunit (Homo sapiens, UniProt P36873, D208A). As to the kind of experiment: Inhibition of Serine/threonine protein phosphatase 1 (PP1) mutants by natural toxins in D208A.
T8 sequence (P36873 2-323 D208A limits assumed): as the sequence (P36873 2-323 R221S limits assumed) above, with D207A, S220R counted along it
The target in test [21] is T9, Serine/threonine-protein phosphatase PP1-gamma catalytic subunit (Homo sapiens, UniProt P36873, C127S). Kind of test: Inhibition of Serine/threonine protein phosphatase 1 (PP1) mutants by natural toxins in C127S.
T9 sequence (P36873 2-323 C127S limits assumed): as the sequence (P36873 2-323 R221S limits assumed) above, with C126S, S220R counted along it
Test [22] deals with T10, Serine/threonine-protein phosphatase PP1-gamma catalytic subunit (Homo sapiens, UniProt P36873, N124D). Kind of test: Inhibition of Serine/threonine protein phosphatase 1 (PP1) mutants by natural toxins in N124D.
T10 sequence (P36873 2-323 N124D limits assumed): as the sequence (P36873 2-323 R221S limits assumed) above, with N123D, S220R counted along it
Test [23] is described as follows: Exogenous inhibition concentration of Serine/threonine protein phosphatase 5 (PP5).
The target in test [24] is T11, Serine/threonine-protein phosphatase PP1-gamma catalytic subunit (Homo sapiens, UniProt P36873, H248N). Kind of test: Inhibition of Serine/threonine protein phosphatase 1 (PP1) mutants by natural toxins in H248N.
T11 sequence (P36873 2-323 H248N limits assumed): as the sequence (P36873 2-323 R221S limits assumed) above, with S220R, H247N counted along it
The target of test [25] is T2, Serine/threonine-protein phosphatase PP1-gamma catalytic subunit. As to the kind of experiment: Inhibition of Serine/threonine protein phosphatase 1 (PP1) mutants by natural toxins in wild type.
Target sequence in this assay (P36873 2-323 limits assumed, change not shown): as the sequence (P36873 2-323 R221S limits assumed) above, with S220R counted along it
The target in test [26] is T12, Serine/threonine-protein phosphatase PP1-gamma catalytic subunit (Homo sapiens, UniProt P36873, E275R). As to the kind of experiment: Inhibition of Serine/threonine protein phosphatase 1 (PP1) mutants by natural toxins in E275R.
T12 sequence (P36873 2-323 E275R limits assumed): as the sequence (P36873 2-323 R221S limits assumed) above, with S220R, E274R counted along it
For test [27], the target named is T8, Serine/threonine-protein phosphatase PP1-gamma catalytic subunit. Kind of test: Inhibition of Serine/threonine protein phosphatase 1 (PP1) mutant type D208A by compound was evaluated.
The target in test [28] is T7, Serine/threonine-protein phosphatase PP1-gamma catalytic subunit. As to the kind of experiment: Inhibition of Serine/threonine protein phosphatase 1 (PP1) mutant type Y272F by compound was evaluated.
Test [29] has as its target T10, Serine/threonine-protein phosphatase PP1-gamma catalytic subunit. Kind of test: Inhibition of Serine/threonine protein phosphatase 1 (PP1) mutant type N124D by compound was evaluated.
In test [30] the target is T4, Serine/threonine-protein phosphatase PP1-gamma catalytic subunit. As to the kind of experiment: Inhibition of Serine/threonine protein phosphatase 1 (PP1) mutant type R221S by compound was evaluated.
Test [31] deals with T6, Serine/threonine-protein phosphatase PP1-gamma catalytic subunit. As to the kind of experiment: Inhibition of Serine/threonine protein phosphatase 1 (PP1) mutant type D220V by compound was evaluated.
Test [32] deals with T9, Serine/threonine-protein phosphatase PP1-gamma catalytic subunit. Kind of test: Inhibition of Serine/threonine protein phosphatase 1 (PP1) mutant type C127S by compound was evaluated.
Test [33] has as its target T12, Serine/threonine-protein phosphatase PP1-gamma catalytic subunit. Kind of test: Inhibition of Serine/threonine protein phosphatase 1 (PP1) mutant type E275R by compound was evaluated.
In test [34] the target is T11, Serine/threonine-protein phosphatase PP1-gamma catalytic subunit. As to the kind of experiment: Inhibition of Serine/threonine protein phosphatase 1 (PP1) mutant type H248N by compound was evaluated.
For test [35], the target named is T5, Serine/threonine-protein phosphatase PP1-gamma catalytic subunit. As to the kind of experiment: Inhibition of Serine/threonine protein phosphatase 1 (PP1) mutant type R96A by compound was evaluated.

Numbered stars: 1 amine (or outer) side, 2 acyl side, 3 side chain; on linkers, the order of the positions; unused ones are H or OH. Bridge positions count the residues as written; N and C are the ends. Square brackets hold non-standard residues; d marks the D form. Peptide text beside a SMILES is read from it. Adda = CO[C@@H](Cc1ccccc1)[C@@H](C)/C=C(C)/C=C/[C@H](N[*:1])[C@H](C)C(=O)[*:2]; dAsp(3S-Me) = C[C@H](C(=O)[*:3])[C@@H](N[*:1])C(=O)[*:2]; d(γGlu) = O=C(O)[C@@H](CCC(=O)[*:2])N[*:1]; NMeDha = C=C(NC)C(=O)O

T5 sequence (P36873 2-323 R96A limits assumed): as the sequence (P36873 2-323 R221S limits assumed) above, with R95A, S220R counted along it
T7 sequence (P36873 2-323 Y272F limits assumed): as the sequence (P36873 2-323 R221S limits assumed) above, with S220R, Y271F counted along it

With `CCOC(=O)C1C(C(=O)O)C2CC[C@H]1O2` (some centres not stated), the GI50 in [1] was 243 µM; in test [2] it was 437 µM; in test [3], 330 µM; in test [4] it was 266 µM; in [7], 185 µM. The results for the IC50 in test [5] and in [6] were 0.45 µM and 2.96 µM, respectively. The PP2A Selectivity in test [8] is 6.6.
Regarding `CO[C@H]([C@H](O)CC(=O)[C@@H](C)[C@@H](O)CC[C@@H](C)[C@@H]1O[C@]2(CC[C@@H](C)[C@H](CC[C@H](C)C(C)=O)O2)CC[C@@H]1C)[C@H](OC(=O)C[C@@H](O)C1=C(C)C(=O)OC1=O)C(C)C` [TAUTOMYCIN], the half-inhibitory concentration (IC50) in [9] is 0.0007 µM; in test [10] it was 0.0007 µM; in [11], 70000 µM; in test [12], “no inhibition”.
`O=C(O)C1C2C[C@H](COC(=O)C3C[C@H]3c3ccccc3)[C@@H](O2)C1C(=O)O` (some centres not stated): the Ki in test [13] stood at 0.5 µM. Moreover, the figures for the IC50 in [10] and in test [14] were 4 µM and 11.5 µM, respectively.
With `C=C1C(=O)N[C@H](C)C(=O)N[C@@H](CC(C)C)C(=O)N[C@@H](C(=O)O)[C@H](C)C(=O)N[C@@H](CCCNC(=N)N)C(=O)N[C@@H](/C=C/C(C)=C/[C@H](C)[C@H](Cc2ccccc2)OC)[C@H](C)C(=O)N[C@@H](C(=O)O)CCC(=O)N1C` [MICROCYSTIN-LR] (R[Adda][d(γGlu)][NMeDha][dA]L[dAsp(3S-Me)]-OH; lactam N-7), the IC50 in test [15] came to 0.029 µM; in test [16] it was 0.035 µM; in test [17] it was 0.008 nM; in [18], 0.02 nM; in test [19], 0.0008 µM; in test [20], 0.0019 µM. Also, the IC50 in test [21] was 0.00056 µM; in test [22], 0.2 µM; in test [23] it was greater than 0.001 µM; in test [24], 0.035 µM; in test [12], “no inhibition”; in [25], 0.02 nM. This molecule showed an IC50 in test [26] of 0.01 nM.
In the case of `C=C1[C@@H](O)[C@@H]2O[C@]3(CC[C@H](/C=C/[C@@H](C)[C@@H]4CC(C)=C[C@@]5(O[C@H](C[C@@](C)(O)C(=O)O)CC[C@H]5O)O4)O3)CC[C@H]2O[C@@H]1[C@@H](O)C[C@H](C)[C@H]1O[C@@]2(CCCCO2)CC[C@H]1C` [OKADAIC ACID], the IC50 is greater than 5 µM in test [27]; 0.2 nM in test [17]; 1.15 µM in test [28]; greater than 5 µM in [29]; 0.003 µM in test [10]; greater than 5 µM in test [30]. The 50% inhibitory concentration (IC50) in test [31] was 0.028 µM; in test [32], 0.078 µM; in test [33], 0.048 µM; in test [34], greater than 5 µM; in [14], greater than 10000 µM; in test [12], “no inhibition”. Also, the IC50 in test [25] turned out to be 45 nM; in test [35] it was 0.26 µM.

By GI50 is commonly meant the concentration giving 50% growth inhibition. Lower therefore signals more potent growth inhibition. By IC50 is commonly meant the concentration at which inhibition is half-maximal. A high value points to lower potency.
